Publication PMC9997068, “Impact of Gastric pH Variations on the Release of Amorphous Solid Dispersion Formulations Containing a Weakly Basic Drug and Enteric Polymers” (Molecular Pharmaceutics, 2023)

Assay: Drug crystallization in media of different pH (PXRD)
Assay type: physicochemical
Protocol: PXRD was used to confirm the amorphous state of freshly prepared DLM ASDs and to detect drug crystallization in solution. […] Crystallization of the DLM salt was evaluated at predetermined time points. Drug crystallization in ASDs upon acidic incubation was conducted at the same drug concentration as in the dissolution testing: 20 mg of ASD powder was added to 50 mL of acidic solutions at pH 1.6, 3.0, or 5.0 and kept stirring at 300 rpm, 37 °C for 1 h.
Undissolved particles were collected by vacuum filtration and analyzed using a Rigaku Smartlab diffractometer (Rigaku Americas, The Woodlands, TX) equipped with a Cu–Kα radiation source and a D/tex ultradetector. Diffractograms were acquired with a scanning speed of 4°/min (4–40° 2θ) and 0.02° step size. The voltage and current were 40 kV and 44 mA, respectively.

pHmax (crystallization to the free base observed at all pHs investigated): < 1.6 | immersion time at which evidence of crystalline free base was seen (neat amorphous salt in suspension, 37 °C): 5 min | crystallization of neat amorphous salt (pH 1.6 and 3.0): rapid | rate of crystallization of neat amorphous salt (pH 5.0 and 6.5): much reduced
Structure (SMILES): C[C@]1(COc2ccc(N3CCC(Oc4ccc(OC(F)(F)F)cc4)CC3)cc2)Cn2cc([N+](=O)[O-])nc2O1.O=S(=O)(O)CCS(=O)(=O)O [DLM edisylate]
